Where no end group is shown, it is not given here.
The substances below were run on allergen specific T cells (assay: T cell proliferation assay (72 h) on donor derived T cell lines (TCL02/TCL03)). Settings: T cell lines TCL-02 DK1, 30 donors; hit criteria SI>=2, CPM>=1000.
Assay type: cell-based, human
Summary of the method: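 CD8-depleted PBMCs from grass-allergic donors stimulated with natural grass allergen mix (nPhl p 1 0.5 μg/ml) to raise T cell lines; restimulated with irradiated APCs, allergens or PHA-P (0.5 μg/ml) plus rIL-2. Proliferation to overlapping 20-mer and selected 15-mer grass peptides tested with TCL02 (day 24) or TCL03 (day 34).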

Going from FAVVDLNKMRAVWVDGKART-OH [compound 47] to FRRVKSKYPEGTKVTFHVEK-OH [compound 23], the “Proliferation % donor coverage (TCL-02 DK1)” value (“Proliferation % donor coverage” below) falls from 40.00% to 20.00%.

Compared with GAASNKAFAEGLSGEPKGAA-OH [compound 76], GDEQKLRSAGELELQFRRVK-OH [compound 6] is higher in “Proliferation % donor coverage” value: 16.67% for the first, 46.67% for the second.

Going from GFGMLLRKYGIAAENVIDVK-OH [compound 48] to GFKAALAAAAGVPPADKYRT-OH [compound 63], the “Proliferation % donor coverage” value falls from 30.00% to 26.67%.

Going from GGASGYKDVDKPPFSGMTGS-OH [compound 18] to GNTPIFKSGRGSGSSFEIKS-OH [compound 20], the “Proliferation % donor coverage” value falls from 16.67% to 13.33%.

Going from GQEDKLRKAGELTLQFRRVK-OH [compound 101] to GRGSGSSFEIKSTKPEASSG-OH [compound 2], the “Proliferation % donor coverage” value rises from 13.33% to 26.67%.

Compared with GRRHSVRIRVRSGGHDYEGL-OH [compound 51], GSDPKKLVLNIKYTRPGDSL-OH [compound 36] is higher in “Proliferation % donor coverage” value: 10.00% for the first, 53.33% for the second.

First: GSNEKHLAVLVKYEGDTMAE-OH [compound 31]
Second: HGSEEWEPLTKKGNVWEVKS-OH [compound 37]
The “Proliferation % donor coverage” value of the first is lower: 10.00% for the first, 26.67% for the second.

In the case of IKYTRPGDSLAEVELRQHGS-OH [compound 42], the “Proliferation % donor coverage” value is reported as 16.67%.

Same assay, conditions: T cell lines TCL-02 DK1; strength of response (average relative magnitude)

Going from FAVVDLNKMRAVWVDGKART-OH [compound 47] to FRRVKSKYPEGTKVTFHVEK-OH [compound 23], the “Proliferation strength (TCL-02 DK1)” value falls from 6.20 to 1.60.

Compared with GAASNKAFAEGLSGEPKGAA-OH [compound 76], GDEQKLRSAGELELQFRRVK-OH [compound 6] is higher in “Proliferation strength (TCL-02 DK1)” value: 1.60 for the first, 7.10 for the second.

Going from GFGMLLRKYGIAAENVIDVK-OH [compound 48] to GFKAALAAAAGVPPADKYRT-OH [compound 63], the “Proliferation strength (TCL-02 DK1)” value falls from 4.70 to 4.10.

Compared with GGASGYKDVDKPPFSGMTGS-OH [compound 18], GNTPIFKSGRGSGSSFEIKS-OH [compound 20] is lower in “Proliferation strength (TCL-02 DK1)” value: 2.30 for the first, 1.40 for the second.

Compared with GQEDKLRKAGELTLQFRRVK-OH [compound 101], GRGSGSSFEIKSTKPEASSG-OH [compound 2] is higher in “Proliferation strength (TCL-02 DK1)” value: 1.20 for the first, 3.10 for the second.

Compared with GRRHSVRIRVRSGGHDYEGL-OH [compound 51], GSDPKKLVLNIKYTRPGDSL-OH [compound 36] is higher in “Proliferation strength (TCL-02 DK1)” value: 0.40 for the first, 11.90 for the second.

First: GSNEKHLAVLVKYEGDTMAE-OH [compound 31]
Second: HGSEEWEPLTKKGNVWEVKS-OH [compound 37]
The “Proliferation strength (TCL-02 DK1)” value of the first is lower: 1.40 for the first, 3.20 for the second.

With IKYTRPGDSLAEVELRQHGS-OH [compound 42] the “Proliferation strength (TCL-02 DK1)” value was 0.80.

What follows are substances tested on release of IL-5 upon T cell activation (assay: Fluorospot assay, IL-5 release (DK1-TCL01, US1-TCL01)). Settings: head prints TCL-02 DK1; text: 25 TCL-01 DK1 lines.
Assay type: cell-based, human
Experimental: (§1) Grass allergic donors were recruited (cohort DK1 including 30 grass allergic individuals, DK2 including 24 grass allergic individuals and US1 including 15 grass allergic individuals). PBMCs were isolated from freshly drawn heparinized blood by gradient centrifugation on lymphoprep (Nycomed, Norway), washed twice and re-suspended in RPMI 1640 medium with HEPES and ultraglutamine (Cambrex, Belgium) supplemented with 5% v/v human AB-serum (Cambrex, Belgium), 100 units/ml penicillin, and 0.1 mg/ml streptomycin (Sigma, St Louis, USA) (referred to as 5% AB-medium). Aliquots of the isolated PBMCs were frozen and were thawed later to stimulate the T cell lines. Additionally either fresh or thawed PBMCs were used as antigen presenting cells (APCs) in the proliferation assay as described later. In some cases the PBMCs were freezed at this stage and thawed later on to continue the experiment as described in the following. The isolated PBMCs (fresh or thawed) were CD8 depleted by MACS magnetic depletion according to the manufacturer's instructions (Miltenyi Biotec, Bergisch Gladbach, Germany). On day 0 the CD8-depleted PBMCs (2×10^6/ml) were stimulated in 1 ml bulk cultures in AB medium in 24 well plates (Nunc, Denmark) with the mixture of natural allergens: nPhl p 1 (0.5 μg/ml), mix of nPhl p 2/nPhl p 3 (1.0 μg/ml), nPhl p 4 (0.5 μg/ml), nPhl p 5 (0.5 μg/ml) and nCyn d 1 (0.5 μg/ml). Amount of 65 U, 30 U, and 30 U recombinant IL-2 (Chiron, USA) were added per well at days 5, 6 and 7, respectively. On day 14 cells were harvested to obtain T cell line generation 01 (referred to as TCL01).
(§2) On day 14 the T cells of TCL01 were isolated, washed and counted. The isolated T cells of TCL01 generation were used to perform either ELISpot or Fluorospot assay. TCL01 were further re-stimulated as described in the next paragraph for use in T cell proliferation. The aliquot for use in T cell proliferation was re-stimulated on day 14 to carry out proliferation experiment at day 24.
(§3) In the Fluorospot assays, release of IL-5 and IFN-γ upon T cell activation (of donor derived lines DK1-TCL01, and US1-TCL01) with a peptide or a peptide-mix described herein was measured by Fluorospot assay kit (Mabtech AB) and procedures were followed as per manufacturer's instructions. Briefly anti-human IL-5 and anti-human IFN-γ coated 96 well plates were obtained and blocked with 10% AB serum in RPMI. The plates were washed thoroughly and the isolated T cells were plated and incubated with either single peptides (2 μg/ml) or peptide mixes (2 μg/ml), or allergens nPhl p1, nPhl p 2, nPhl p 3, nPhl p 4, nPhl p 5, Cyn d 1 at 2 μg/ml for 20 hrs/37° C./5% CO2. After the incubation time the cells were removed by emptying the plate. Detection antibodies 7-B6-1-FS-FITC (1:200) and 5A10-biotin (2 μg/ml) were diluted in PBS-0.1% BSA and were added to the plate and incubated for 2 hours/room temperature (RT). There-after the plates were washed and anti-FITC-green (1:200) and SA-Red (1:200) diluted in PBS±0.1% BSA were added and incubated for 1 hour/RT/dark. After the incubation period the plates were washed, emptied and fluorescence enhancer solution was added for 15 minutes/RT. Plates were emptied, fluorescence enhancer solution was firmly tapped out against a clean paper, soft plastic under drain was removed and the plates were left in the dark to dry. The counts were inspected in a fluorospot reader. Hit criteria for peptide were 20 SFCs/10^6 PBMCs, p≤0.05 and poisson 0.05 stimulated cells compared to background, and a stimulation index (SI)≥2.
(§4) The peptides were identified as hits if they fulfilled the criteria as mentioned below where stimulation index (SI) value of 2 or above, Poisson value=<0.05 and P value=<0.05, SFC>=20 (IL-5/IFN-g)/10^6 cells and CPM>=1000 (proliferation) SI can be defined as [[…]/medium control] in a Fluorospot assay and [counts per minute (cpm)/medium control] in a proliferation assay.

Going from FAVVDLNKMRAVWVDGKART-OH [compound 47] to FRRVKSKYPEGTKVTFHVEK-OH [compound 23], the “IL-5-Fluorospotr % donor coverage (TCL-02 DK1)” value rises from 0.00% to 4.00%.

Compared with GAASNKAFAEGLSGEPKGAA-OH [compound 76], GDEQKLRSAGELELQFRRVK-OH [compound 6] is higher in “IL-5-Fluorospotr % donor coverage (TCL-02 DK1)” value: 0.00% for the first, 20.00% for the second.

First: GFGMLLRKYGIAAENVIDVK-OH [compound 48]
Second: GFKAALAAAAGVPPADKYRT-OH [compound 63]
The “IL-5-Fluorospotr % donor coverage (TCL-02 DK1)” value of the first is lower: 4.00% for the first, 12.00% for the second.

GGASGYKDVDKPPFSGMTGS-OH [compound 18] and GNTPIFKSGRGSGSSFEIKS-OH [compound 20] are the same in “IL-5-Fluorospotr % donor coverage (TCL-02 DK1)” value: 0.00% for the first, 0.00% for the second.

Going from GQEDKLRKAGELTLQFRRVK-OH [compound 101] to GRGSGSSFEIKSTKPEASSG-OH [compound 2], the “IL-5-Fluorospotr % donor coverage (TCL-02 DK1)” value rises from 4.00% to 12.00%.

First: GRRHSVRIRVRSGGHDYEGL-OH [compound 51]
Second: GSDPKKLVLNIKYTRPGDSL-OH [compound 36]
The “IL-5-Fluorospotr % donor coverage (TCL-02 DK1)” value of the first is lower: 0.00% for the first, 24.00% for the second.

Compared with GSNEKHLAVLVKYEGDTMAE-OH [compound 31], HGSEEWEPLTKKGNVWEVKS-OH [compound 37] is higher in “IL-5-Fluorospotr % donor coverage (TCL-02 DK1)” value: 0.00% for the first, 4.00% for the second.

For IKYTRPGDSLAEVELRQHGS-OH [compound 42], the “IL-5-Fluorospotr % donor coverage (TCL-02 DK1)” value was 0.00%.

These substances were tested on release of IFN-γ upon T cell activation (assay: Fluorospot assay, IFN-γ release (DK1-TCL01, US1-TCL01)). Settings: head prints TCL-02 DK1; 17 TCL-01 DK1 lines.
Assay type: cell-based, human
Experimental: as §1, §2, §3, §4

First: FAVVDLNKMRAVWVDGKART-OH [compound 47]
Second: FRRVKSKYPEGTKVTFHVEK-OH [compound 23]
The “IFN-gamma % donor coverage (TCL-02 DK1)” value of the first is higher: 8.00% for the first, 0.00% for the second.

Compared with GAASNKAFAEGLSGEPKGAA-OH [compound 76], GDEQKLRSAGELELQFRRVK-OH [compound 6] is higher in “IFN-gamma % donor coverage (TCL-02 DK1)” value: 0.00% for the first, 4.00% for the second.

Going from GFGMLLRKYGIAAENVIDVK-OH [compound 48] to GFKAALAAAAGVPPADKYRT-OH [compound 63], the “IFN-gamma % donor coverage (TCL-02 DK1)” value falls from 15.00% to 0.00%.

GGASGYKDVDKPPFSGMTGS-OH [compound 18] and GNTPIFKSGRGSGSSFEIKS-OH [compound 20] are the same in “IFN-gamma % donor coverage (TCL-02 DK1)” value: 0.00% for the first, 0.00% for the second.

First: GQEDKLRKAGELTLQFRRVK-OH [compound 101]
Second: GRGSGSSFEIKSTKPEASSG-OH [compound 2]
The “IFN-gamma % donor coverage (TCL-02 DK1)” value of the first is lower: 0.00% for the first, 4.00% for the second.

Compared with GRRHSVRIRVRSGGHDYEGL-OH [compound 51], GSDPKKLVLNIKYTRPGDSL-OH [compound 36] is higher in “IFN-gamma % donor coverage (TCL-02 DK1)” value: 0.00% for the first, 8.00% for the second.

GSNEKHLAVLVKYEGDTMAE-OH [compound 31] and HGSEEWEPLTKKGNVWEVKS-OH [compound 37] are the same in “IFN-gamma % donor coverage (TCL-02 DK1)” value: 0.00% for the first, 0.00% for the second.

IKYTRPGDSLAEVELRQHGS-OH [compound 42] was tested, and the “IFN-gamma % donor coverage (TCL-02 DK1)” value was 0.00%.

From patent US20180207228A1, “PEPTIDE COMBINATIONS AND USES THEREOF FOR TREATING GRASS ALLERGY” (ALK-Abelló A/S, priority 2015, published 2018)
